Data taken from patent US20260297042A1, “BIARYLAMIDE DERIVATIVES AND THEIR USE AS PKMYT1 INHIBITORS” (CANCER RESEARCH TECHNOLOGY LIMITED, priority 2023, published 2026).
Structures can show the parent of a compound that is named as a salt.

Legend:
[1] = target: T1, Cellular PKMYT1 Biomarker CDK1 pT14 (Homo sapiens, UniProt Q99640); assay: Inhibition of cellular PKMYT1 biomarker CDK1 pT14 in OVCAR 3 cells (immunoblot); format: cell-based; conditions: 20 hours incubation
T1 construct: read-out CDK1 phospho-T14 immunoblot
T1 sequence (Q99640 1-499): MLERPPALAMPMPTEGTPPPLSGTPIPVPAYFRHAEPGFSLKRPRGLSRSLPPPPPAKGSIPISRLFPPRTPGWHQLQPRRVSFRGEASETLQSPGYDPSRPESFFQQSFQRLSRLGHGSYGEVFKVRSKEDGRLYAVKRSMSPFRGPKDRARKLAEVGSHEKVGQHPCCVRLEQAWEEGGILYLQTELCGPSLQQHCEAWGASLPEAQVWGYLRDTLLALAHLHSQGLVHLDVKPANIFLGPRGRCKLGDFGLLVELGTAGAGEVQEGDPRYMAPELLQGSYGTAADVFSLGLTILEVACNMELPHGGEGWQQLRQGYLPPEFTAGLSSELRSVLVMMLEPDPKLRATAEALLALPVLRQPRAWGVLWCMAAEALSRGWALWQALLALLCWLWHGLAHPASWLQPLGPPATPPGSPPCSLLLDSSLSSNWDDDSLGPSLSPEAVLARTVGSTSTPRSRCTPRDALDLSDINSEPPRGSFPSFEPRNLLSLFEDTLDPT
In short: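 Confluent OVCAR 3 cells treated with a compound concentration range for 20 h at 37 °C. Lysates analysed by automated capillary immunoblot for CDK1 phospho-T14, with vinculin, fluorescence detection; IC50 by regression.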

[2] = tested on: OVCAR 3 cells; assay: Cancer cell line proliferation assay, ATP-based cell viability (Cell Titre Glow), OVCAR 3 (CCNE1-amplified); conditions: KYSE30 (normal CCNE1) GI50 vs. OVCAR 3 (CCNE1-amplified) GI50
In short: (§1)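 Proliferation of KYSE-30 (normal CCNE1) and CCNE1-amplified OVCAR 3 ovarian cancer cells treated with PKMYT1 inhibitors, read by Cell Titre Glow luminescence. GI50 is the concentration giving 50% growth inhibition.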

[3] = target: T2, WEE1 (Homo sapiens, UniProt P30291); assay: Selectivity versus WEE1 assay (ADP-Glo enzymatic assay); format: biochemical; conditions: for IC50: WEE1 15 nM, ADP-Glo, banded values; for PKMYT1 vs. WEE1 selectivity: fold difference in selectivity for PKMYT1 over WEE1, banded
T2 construct: purchased Thermo Fisher PR7373A
In short: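 ADP-Glo luminescent read-out after a 60-min, 26 °C kinase reaction of 15 nM WEE1 with 30 µM ATP, in HEPES pH 7.5 buffer containing MgCl2, EGTA, Brij-35 and 1% DMSO. IC50 accepted only when replicate values agree within 3-fold and curve fit r2 exceeds 0.9.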

[4] = tested on: KYSE-30 cells; assay: Cancer cell line proliferation assay, ATP-based cell viability (Cell Titre Glow), KYSE-30 (normal CCNE1); conditions: Homo sapiens, KYSE-30 cells (normal CCNE1), concentration that achieves 50% cell growth proliferation inhibition, read-out: KYSE30 Gl50
In short: as §1

[5] = target: T3, Human PKMYT1 (Homo sapiens, UniProt Q99640); assay: PKMYT1 biochemical ADP-Glo enzymatic assay; conditions: PKMYT1 kinase domain 15 nM; ADP-Glo; banded values
T3 construct: Human PKMYT1 75-362 was cloned as a TEV cleavable 6xHis fusion; 6xHis (TEV cleavable) (cleaved yes); made in house; host or cells: bacterial cells
T3 sequence (Q99640 75-362): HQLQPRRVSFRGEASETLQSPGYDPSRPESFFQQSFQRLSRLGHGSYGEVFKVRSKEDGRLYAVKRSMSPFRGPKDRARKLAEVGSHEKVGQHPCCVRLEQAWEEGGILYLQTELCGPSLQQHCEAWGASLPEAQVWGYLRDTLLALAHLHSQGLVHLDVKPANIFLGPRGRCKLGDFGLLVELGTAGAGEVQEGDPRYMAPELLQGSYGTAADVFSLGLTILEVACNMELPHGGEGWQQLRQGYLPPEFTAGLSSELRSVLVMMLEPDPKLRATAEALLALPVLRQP
In short: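 IC50 values come from 10-point 3-fold series, with replicates required within 3-fold and r2 >0.9. ADP formed by PKMYT1 intrinsic ATPase (500 uM ATP, 60 min, 26° C.) was quantified by ADP-Glo luminescence. The enzyme was the TEV-cleaved kinase domain 75-362 at 15 nM, in HEPES pH 7.5 buffer.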

T2 sequence (P30291 whole entry): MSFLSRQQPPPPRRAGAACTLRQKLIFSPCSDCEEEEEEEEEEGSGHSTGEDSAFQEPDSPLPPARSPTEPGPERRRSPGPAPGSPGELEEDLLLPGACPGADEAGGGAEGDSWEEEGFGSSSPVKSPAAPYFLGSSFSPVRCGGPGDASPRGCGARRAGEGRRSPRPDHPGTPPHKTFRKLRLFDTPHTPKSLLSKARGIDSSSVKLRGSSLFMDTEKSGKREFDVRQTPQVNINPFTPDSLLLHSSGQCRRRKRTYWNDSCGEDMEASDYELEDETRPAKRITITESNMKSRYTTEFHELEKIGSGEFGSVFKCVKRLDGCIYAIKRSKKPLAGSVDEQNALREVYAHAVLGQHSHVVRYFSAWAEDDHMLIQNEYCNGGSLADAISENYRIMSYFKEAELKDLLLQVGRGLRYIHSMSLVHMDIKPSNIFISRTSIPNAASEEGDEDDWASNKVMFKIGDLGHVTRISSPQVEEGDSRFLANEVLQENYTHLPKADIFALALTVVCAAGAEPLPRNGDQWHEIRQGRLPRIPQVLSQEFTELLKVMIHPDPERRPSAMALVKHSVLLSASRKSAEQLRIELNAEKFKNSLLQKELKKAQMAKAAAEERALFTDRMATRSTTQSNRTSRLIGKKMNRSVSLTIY

IC50 [1] [nM]	IC50 [3] [nM]	PKMYT1 vs. WEE1 selectivity [3]	IC50 [5] [nM]	Structure (SMILES)	Selectivity ratio KYSE30 Gl50 vs. OVCAR3 Gl50 [2]	GI50 [4] [nM]
< 100	1000 to 11000	X (100-<1000 fold)	< 50	Cc1ccc(O)c(C)c1NC(=O)c1cnc(Nc2nn(CC(F)F)cc2Br)s1 [BAA-587, 2-((4-bromo-1-(2,2-difluoroethyl)-1H-pyrazol-3-yl)amino)-N-(3-hydroxy-2,6-dimethylphenyl)thiazole-5-carboxamide]	Y (>20 fold)	500 to 5000
< 100	1000 to 11000	X (100-<1000 fold)	< 50	CCc1cn(CCF)nc1Nc1ncc(C(=O)Nc2c(C)ccc(O)c2C)s1 [BAA-588, 2-((4-ethyl-1-(2-fluoroethyl)-1H-pyrazol-3-yl)amino)-N-(3-hydroxy-2,6-dimethylphenyl)thiazole-5-carboxamide]	Y (>20 fold)	500 to 5000
< 100	1000 to 11000	X (100-<1000 fold)	< 50	CCc1cn(CC(F)F)nc1Nc1ncc(C(=O)Nc2c(C)ccc(O)c2C)s1 [BAA-589, 2-((1-(2,2-difluoroethyl)-4-ethyl-1H-pyrazol-3-yl)amino)-N-(3-hydroxy-2,6-dimethylphenyl)thiazole-5-carboxamide]	Y (>20 fold)	> 5000
< 100	50 to 1000	W (10-<100 fold)	< 50	CCc1cn(CC#N)nc1Nc1ncc(C(=O)Nc2c(C)ccc(O)c2C)s1 [BAA-590, 2-((1-(cyanomethyl)-4-ethyl-1H-pyrazol-3-yl)amino)-N-(3-hydroxy-2,6-dimethylphenyl)thiazole-5-carboxamide. TFA salt]	Y (>20 fold)	> 5000
< 100	1000 to 11000	X (100-<1000 fold)	< 50	Cc1cn(C(CO)C(=O)N(C)C2CC2)nc1Nc1ncc(C(=O)Nc2c(C)ccc(O)c2C)s1 (stereo not drawn) [BAA-591, 2-((1-(1-(cyclopropyl(methyl)amino)-3-hydroxy-1-oxopropan-2-yl)-4-methyl-1H-pyrazol-3-yl)amino)-N-(3-hydroxy-2,6-dimethylphenyl)thiazole-5-carboxamide]	Y (>20 fold)	> 5000
< 100	1000 to 11000	X (100-<1000 fold)	< 50	CCN(C(=O)C(CO)n1cc(C)c(Nc2ncc(C(=O)Nc3c(C)ccc(O)c3C)s2)n1)C1CC1 (stereo not drawn) [BAA-592, 2-((1-(1-(cyclopropyl(ethyl)amino)-3-hydroxy-1-oxopropan-2-yl)-4-methyl-1H-pyrazol-3-yl)amino)-N-(3-hydroxy-2,6-dimethylphenyl)thiazole-5-carboxamide]	Y (>20 fold)	> 5000
< 100	1000 to 11000	X (100-<1000 fold)	< 50	CCc1c[nH]nc1Nc1ncc(C(=O)Nc2c(C)ccc(O)c2C)s1 [BAA-594, 2-((4-Ethyl-1H-pyrazol-3-yl)amino)-N-(3-hydroxy-2,6-dimethylphenyl)thiazole-5-carboxamide]	Y (>20 fold)	> 5000
< 100	1000 to 11000	X (100-<1000 fold)	< 50	Cc1cn(CC(=O)N(C)C2CCC2)nc1Nc1ncc(C(=O)Nc2c(C)ccc(O)c2C)s1 [BAA-595, 2-((1-(2-(cyclobutyl(methyl)amino)-2-oxoethyl)-4-methyl-1H-pyrazol-3-yl)amino)-N-(3-hydroxy-2,6-dimethylphenyl)thiazole-5-carboxamide]	Y (>20 fold)	> 5000
100 to 1000	> 11000	Y (1000-5000 fold)	< 50	Cc1ccc(O)c(C)c1NC(=O)c1cnc(Nc2ccc3ncccc3n2)s1 [BAA-596, 2-((1,5-naphthyridin-2-yl)amino)-N-(3-hydroxy-2,6-dimethylphenyl)thiazole-5-carboxamide]	Y (>20 fold)	500 to 5000
100 to 1000	> 11000	X (100-<1000 fold)	< 50	Cc1ccc(O)c(C)c1NC(=O)c1cnc(Nc2ccc3ccncc3n2)s1 [BAA-597, 2-((1,7-naphthyridin-2-yl)amino)-N-(3-hydroxy-2,6-dimethylphenyl)thiazole-5-carboxamide]	Y (>20 fold)	500 to 5000
< 100	1000 to 11000	X (100-<1000 fold)	< 50	Cc1cn(CC(=O)N2CCC2C)nc1Nc1ncc(C(=O)Nc2c(C)ccc(O)c2C)s1 (stereo not drawn) [BAA-598, N-(3-hydroxy-2,6-dimethylphenyl)-2-((4-methyl-1-(2-(2-methylazetidin-1-yl)-2-oxoethyl)-1H-pyrazol-3-yl)amino)thiazole-5-carboxamide]	Y (>20 fold)	500 to 5000
100 to 1000	1000 to 11000	X (100-<1000 fold)	< 50	COC[C@H]1CCCN1C(=O)Cn1cc(C)c(Nc2ncc(C(=O)Nc3c(C)ccc(O)c3C)s2)n1 [BAA-599, N-(3-Hydroxy-2,6-dimethyl-phenyl)-2-[[1-[2-[(2R)-2-(methoxymethyl)pyrrolidin-1-yl]-2-oxo-ethyl]-4-methyl-pyrazol-3-yl]amino]thiazole-5-carboxamide]	Y (>20 fold)	> 5000
< 100	1000 to 11000	X (100-<1000 fold)	< 50	Cc1cn(CC(=O)N2CCCC2c2ccccc2)nc1Nc1ncc(C(=O)Nc2c(C)ccc(O)c2C)s1 (stereo not drawn) [BAA-600, N-(3-hydroxy-2,6-dimethylphenyl)-2-((4-methyl-1-(2-oxo-2-(2-phenylpyrrolidin-1-yl)ethyl)-1H-pyrazol-3-yl)amino)thiazole-5-carboxamide]	Y (>20 fold)	500 to 5000
< 100	1000 to 11000	X (100-<1000 fold)	< 50	Cc1cn(CC(=O)N2CCCC2(C)C)nc1Nc1ncc(C(=O)Nc2c(C)ccc(O)c2C)s1 [BAA-605, 2-((1-(2-(2,2-dimethylpyrrolidin-1-yl)-2-oxoethyl)-4-methyl-1H-pyrazol-3-yl)amino)-N-(3-hydroxy-2,6-dimethylphenyl)thiazole-5-carboxamide]	Y (>20 fold)	> 5000
< 100	1000 to 11000	X (100-<1000 fold)	< 50	COCC1(N(C)C(=O)Cn2cc(C)c(Nc3ncc(C(=O)Nc4c(C)ccc(O)c4C)s3)n2)CC1 [BAA-607]	Y (>20 fold)	> 5000
